Source: ChEMBL document CHEMBL3352542, “Synthesis, biological evaluation and molecular modeling study of 2-(1,3,4-thiadiazolyl-thio and 4-methyl-thiazolyl-thio)-quinazolin-4-ones as a new class of DHFR inhibitors” (Bioorg Med Chem Lett, 2014)

Key:
[1] = tested on: Bacillus subtilis; assay: Antimicrobial activity against Bacillus subtilis assessed as inhibition zone at 200 ug/disk after 24 hrs by disc-diffusion method; type: functional; details: read-out: IZ
[2] = tested on: MCF7; assay: Growth inhibition of human MCF7 cells at 10 uM after 48 hrs; type: functional; details: MCF7, 48 h, read-out: GI
[3] = Growth inhibition of human HOP92 cells at 10 uM after 48 hrs; type: functional; details: HOP-92, 48 h, read-out: GI
[4] = tested on: Pseudomonas aeruginosa; assay: Antimicrobial activity against Pseudomonas aeruginosa assessed as inhibition zone at 200 ug/disk after 24 hrs by disc-diffusion method; type: functional; details: read-out: IZ
[5] = tested on: Escherichia coli; assay: Antimicrobial activity against Escherichia coli assessed as inhibition zone at 200 ug/disk after 24 hrs by disc-diffusion method; type: functional; details: read-out: IZ
[6] = target: T1, Dihydrofolate reductase (Bos taurus, UniProt P00376); assay: Inhibition of bovine liver DHFR
T1 sequence (P00376 whole entry): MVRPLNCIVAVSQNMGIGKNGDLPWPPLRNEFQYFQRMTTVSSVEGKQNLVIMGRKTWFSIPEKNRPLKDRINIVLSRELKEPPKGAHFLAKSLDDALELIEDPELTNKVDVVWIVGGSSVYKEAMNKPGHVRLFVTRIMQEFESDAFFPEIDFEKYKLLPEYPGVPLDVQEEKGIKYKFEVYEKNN

[7] = tested on: HL-60(TB); assay: Growth inhibition of human HL-60(TB) cells at 10 uM after 48 hrs; type: functional; details: HL-60, 48 h, read-out: GI
[8] = tested on: Staphylococcus aureus; assay: Antimicrobial activity against Staphylococcus aureus assessed as inhibition zone at 200 ug/disk after 24 hrs by disc-diffusion method; type: functional; details: read-out: IZ
[9] = tested on: Candida albicans; assay: Antimicrobial activity against Candida albicans assessed as inhibition zone at 200 ug/disk after 24 hrs by disc-diffusion method; type: functional; details: read-out: IZ
[10] = tested on: T47D; assay: Growth inhibition of human T47D cells at 10 uM after 48 hrs; type: functional; details: read-out: GI
[11] = Growth inhibition of human RPMI8226 cells at 10 uM after 48 hrs; type: functional; details: RPMI-8226, 48 h, read-out: GI
[12] = tested on: CAKI-1; assay: Growth inhibition of human CAKI-1 cells at 10 uM after 48 hrs; type: functional; details: CAKI-1, 48 h, read-out: GI
[13] = tested on: K562; assay: Growth inhibition of human K562 cells at 10 uM after 48 hrs; type: functional; details: K562, 48 h, read-out: GI
[14] = Growth inhibition of human SF295 cells at 10 uM after 48 hrs; type: functional; details: SF-295, 48 h, read-out: GI
[15] = tested on: NCI-H522; assay: Growth inhibition of human NCI-H522 cells at 10 uM after 48 hrs; type: functional; details: NCI-H522, 48 h, read-out: GI
[16] = Growth inhibition of human UO31 cells at 10 uM after 48 hrs; type: functional; details: UO-31, 48 h, read-out: GI
[17] = tested on: NCI-H226; assay: Growth inhibition of human NCI-H226 cells at 10 uM after 48 hrs; type: functional; details: NCI-H226, 48 h, read-out: GI
[18] = tested on: A498; assay: Growth inhibition of human A498 cells at 10 uM after 48 hrs; type: functional; details: A498, 48 h, read-out: GI
[19] = Growth inhibition of human UACC62 cells at 10 uM after 48 hrs; type: functional; details: UACC-62, 48 h, read-out: GI
[20] = Growth inhibition of human OVCAR4 cells at 10 uM after 48 hrs; type: functional; details: OVCAR-4, 48 h, read-out: GI
[21] = Growth inhibition of human PC3 cells at 10 uM after 48 hrs; type: functional; details: PC-3, 48 h, read-out: GI
[22] = Growth inhibition of human RXF393 cells at 10 uM after 48 hrs; type: functional; details: RXF 393, 48 h, read-out: GI
[23] = tested on: SR; assay: Growth inhibition of human SR cells at 10 uM after 48 hrs; type: functional; details: read-out: GI
[24] = Growth inhibition of human MOLT4 cells at 10 uM after 48 hrs; type: functional; details: MOLT-4, 48 h, read-out: GI

| Compound | zone of inhibition at 200 µg/disc [1] [mm] | inhibition of growth at 10 µM [2] [%] | inhibition of growth at 10 µM [3] [%] | zone of inhibition at 200 µg/disc [4] [mm] | zone of inhibition at 200 µg/disc [5] [mm] | IC50 [6] [µM] | zone of inhibition at 200 µg/disc [8] [mm] | zone of inhibition at 200 µg/disc [9] [mm] | inhibition of growth at 10 µM [11] [%] | inhibition of growth at 10 µM [14] [%] | inhibition of growth at 10 µM [16] [%] | inhibition of growth at 10 µM [18] [%] | inhibition of growth at 10 µM [23] [%] | other results |
| --- | --- | --- | --- | --- | --- | --- | --- | --- | --- | --- | --- | --- | --- | --- |
| Nc1nnc(Sc2nc3ccc(Cl)cc3c(=O)n2-c2ccccc2)s1 | 8 | 16.4 | 28.6 | 8 | 8 | 6 | 8 | 8 | 19.1 | – | – | – | – | inhibition of growth at 10 µM [7]: 21.5%; inhibition of growth at 10 µM [10]: 21.4% |
| COc1ccc(-n2c(Sc3sc(N)nc3C)nc3ccc(Cl)cc3c2=O)cc1 | 8 | 11.5 | 24.9 | 8 | 8 | 8 | 8 | 8 | 14.6 | 27.6 | 35.5 | 24.3 | 13.5 | inhibition of growth at 10 µM [12]: 13.1%; inhibition of growth at 10 µM [13]: 14.3%; inhibition of growth at 10 µM [15]: 10.5%; inhibition of growth at 10 µM [17]: 11.8%; inhibition of growth at 10 µM [19]: 12.6%; inhibition of growth at 10 µM [20]: 13.8%; inhibition of growth at 10 µM [21]: 14.7%; inhibition of growth at 10 µM [22]: 13.4% |
| COc1cc2nc(Sc3nnc(N)s3)n(Cc3ccccc3)c(=O)c2cc1OC | 14 | – | 26.7 | 8 | 8 | 6 | 8 | 8 | – | 11.4 | 21.5 | 18.7 | 13.4 | inhibition of growth at 10 µM [24]: 18.5% |
